This is an account of results in patent publication US20180021303A1, “BKCA CHANNEL ACTIVATOR FOR TREATING MUSCULAR DISORDER” (Canbex Therapeutics Limited, priority 2015, published 2018).

Data set [1] concerns Biozzi ABH mice with visible spasticity (relapsing progressive experimental autoimmune encephalomyelitis). In words: Spasticity (limb stiffness against a strain gauge) in Biozzi ABH mice with relapsing progressive experimental autoimmune encephalomyelitis. In kind it is in vivo, mouse. The conditions noted are these: result in words.
Method: BMS 204352 and NS 1619 were dissolved in ethanol:cremophor:phosphate buffered saline 1:1:18. […] Paxilline was used at 1 mg/kg, just below doses reported to cause tremors in mice.
Biozzi ABH were injected with mouse spinal cord homogenate in Freunds adjuvant on day 0 and day 7 based on published protocols (Al-Izki S. et al. Mult Scler Rel Dis. 2012; 1: 29-38 and relapsing progressive experimental autoimmune encephalomyelitis developed. Following the development of visible spasticity animals were randomly allocated to treatment groups and spasticity was assessed by measuring limb stiffness against a strain guage (Pryce G. et al. FASEB J. 28: 2014; 117-130).
Animals were injected with: • BMS 204352: 20 mg/kg i.p. n=11 (FIG. 1; Table 2); • NS 1619: 10 mg/kg i.p. n=13 (FIG. 2; Table 1); • NS 11021: 10 mg/kg i.p. n=13 (FIG. 3; Table 3) in ethanol:cremophor:PBS (1:1:18).
The conditions of data set [2]: from previously published data; cited from earlier work.
For data set [3] the following is noted: from previously published data; cited from earlier work. This is another data set of the same source.

In the case of `COc1ccc(Cl)cc1[C@]1(F)C(=O)Nc2cc(C(F)(F)F)ccc21` [BMS 204352, (3S)-3-(5-chloro-2-methoxyphenyl)-3-fluoro-1,3-dihydro-6-(trifluoromethyl)-2H-Indol-2-one], the “Efficacy in a mouse model of spasticity in multiple sclerosis” value in data set [1] is “effective”. Besides, the Tolerability result in data set [2] is “well tolerated”. The CNS penetration entry in data set [3] is on record as “CNS penetrant”.
As to `O=c1[nH]c2cc(C(F)(F)F)ccc2n1-c1cc(C(F)(F)F)ccc1O` [NS 1619, 1,3-dihydro-1-[2-hydroxy-5-(trifluoromethyl)phenyl]-5-(trifluoromethyl)-2H-benzimidazol-2-one], in data set [3], the CNS penetration result is reported as “CNS excluded”.
